Source: article PMC10548512 (Chemical Science, 2023)

System: H1N1pdm09 virus (A/Netherlands/602/2009) I375F mutant
Settings: 1 h

**Q.** With `CC[C@H](C)[C@@H]1NC(=O)[C@H](CS)NC(=O)[C@H](CO)NC(=O)[C@H](CCCNC(=N)N)NC(=O)[C@H](CCCNC(=N)N)NC(=O)[C@H](Cc2ccc(O)cc2)NC(=O)[C@H](CCC(N)=O)NC(=O)[C@H](Cc2ccccc2)NC(=O)[C@H](CC(N)=O)NC(=O)[C@H](CC(C)C)NC(=O)[C@@H]2CSC(=N2)c2cc(ccn2)C[C@@H](C(=O)NCC(N)=O)NC(=O)[C@H](CC(N)=O)NC(=O)[C@H](CC(C)C)NC(=O)[C@H]([C@@H](C)CC)NC(=O)[C@H](CC(N)=O)NC(=O)[C@H](CC(C)C)NC1=O` [M3] as the molecule, how does the IC50 read?
**A.** Its IC50 is 364 nM.
